“Also recorded” adds a separate entry of the source.
Columns and labels:
[1] = system: corneal neovascularization; assay: Corneal neovascularization (corneal NV) model, Example 1; format: in vivo, C57BL/6 mice; details: mice; pegaptanib 25 mg/kg i.p. twice a day, Gleevec 50 mg/kg gavage twice a day; treated day 7-14, read day 14; FIG. 5
[2] = system: choroidal neovascularization; assay: Laser-induced choroidal neovascularization (CNV) model, Example 2; format: in vivo, C57BL/6 mice; details: treated 7 days from day 7; for decrease in CNV area compared to control eyes: experiment with Gleevec (50 mg/kg gavage twice a day) and pegaptanib 25 mg/kg i.p. twice a day
Method: Experimental CNV is often used as a model for Age-related Macular degeneration (AMD). In this model, vessels of the choroid grow through breaks in Bruch's membrane and into the retina, similar to what is observed in AMD patients. To induce experimental CNV, male C57BL/6 mice (18-20 g; Charles River, Wilmington, Mass.) were anesthetized with intramuscular ketamine hydrochloride (25 mg/kg) and xylazine (10 mg/kg) and the pupils were dilated with 1% tropicamide. Four burns were generated using diode laser photocoagulation (75-μm spot size, 0.1-second duration, 90 mW, Oculight SL laser, IRIDEX, Mountain View, Calif.) and a hand-held cover slide as a contact lens. Burns localized to the 3, 6, 9 and 12 o'clock positions of the posterior pole of the retina. Production of a bubble at the time of laser, which indicates rupture of Bruch's membrane, is an important factor in obtaining choroidal neovascularization, so only mice in which a bubble was produced for all four burns were included in the study. […] In experiments using APB5 (an anti-mouse PDGFRb (CD140b) antibody (anti-PDGF agent) from eBioscience, San Diego, Calif.), 5 mg/kg of antibody was administered using intra-peritoneal injections of twice a day. The area of choroidal NV lesions was measured in flat-mounted choroid stained with PECAM. Flat-mounts were examined by fluorescence microscopy and quantified using Openlab software.

[3] = system: developing vessels of the retina; assay: Neonatal mouse model, developing vessels of the retina, Example 3; format: in vivo, Neonatal C57BL/6 mice; details: for effect on blood vessels of the developing retina (growth, morphology): 100 μg of each agent i.p. daily from P0, eyes taken at P4, versus control non-treated retina, FIG. 10
Description: The effect of administering pegaptanib sodium (Macugen™), and ARC-127 (Archemix Corp., Cambridge, Mass.), a PEGylated, anti-PDGF aptamer having the sequence […] […] […] GT (SEQ ID NO: 23, which corresponds to SEQ ID NO: 146 from U.S. Pat. No. 6,582,918, incorporated herein by reference in its entirety) having 2′-fluoro-2′-deoxyuridine at positions 6, 20 and 30, 2′-fluoro-2′-deoxycytidine at positions 8, 21, 28, and 29, 2′-O -Methyl-2′-deoxyguanosine at positions 9, 15, 17, and 31, 2′-O-Methyl-2′-deoxyadenosine at position 22, “N” in positions 10 and 23 from a hexaethylene-glycol phosphoramidite, and an inverted orientation T (i.e., 3′-3′-linked) at position 32, or both on the developing vessels of the retina was investigated. Neonatal C57BL/6 mice were injected daily (in the intra-peritoneal cavity) with 100 μg of ARC-127 or 100 μg of Macugen or both, starting on postnatal day 0 (P0). Mice eyes were enucleated at P4. The retinal vasculature was visualized in flatmounted retinas by immunostaining with PECAM and NG-2 or by perfusion with ConA-FITC and analyzed by fluorescence microscopy.

[4] = system: corneal neovascularization; assay: Corneal NV regression, anti-VEGF aptamer and anti-PDGF aptamer, Example 6; format: in vivo, C57BL/6 mice; details: pegaptanib 25 mg/kg i.p. twice a day, ARC-127 50 mg/kg once a day; treated day 10-20, read day 20; FIGS. 11, 12
Method: (§1) Corneal Neovascularization is a widely used animal model that allows clear visualization of abnormal vascular growth in the eye. The vessels that grow into the normally avascular cornea, can become well established, making this an attractive model to study vessel regression. To induce experimental corneal NV, male C57BL/6 mice (18-20 g; Charles River, Wilmington, Mass.) were anesthetized with intramuscular ketamine hydrochloride (25 mg/kg) and xylazine (10 mg/kg). NaOH (2 ul of 0.2 mM) was applied topically. The corneal and limbal epithelia were removed by applying a rotary motion parallel to the limbus using #21 blade (Feather, Osaka, Japan). […] Corneal NV was visualized using fluorescence microscopy and quantified using Openlab software. The percent of cornea covered by vessels was calculated as a percentage of total corneal area.
The corneal NV model of Example 1 was used to investigate the combination of an anti-VEGF aptamer and anti-PDGF aptamer. […] Corneal NV was visualized using CD31 staining (BD Biosciences Pharmingen, San Diego, Calif.) and quantified using Metamorph software. The percent of cornea covered by vessels was calculated as a percentage of total corneal area.

[5] = system: corneal neovascularization; assay: Corneal NV regression, anti-VEGF aptamer and antibody against PDGFB receptor, Example 7; format: in vivo, C57BL/6 mice; details: pegaptanib 25 mg/kg i.p. twice a day, APB5 50 mg/kg by gavage twice a day; treated day 14-28, read day 28; FIG. 13
Method: as §1
The corneal NV model of Example 1 was used to investigate the combination of an anti-VEGF aptamer and an antibody against the PDGFB receptor. […] Corneal NV was visualized using fluorescence microscopy and quantified using Openlab software. The percent of cornea covered by vessels was calculated as a percentage of total corneal area.

[6] = system: corneal neovascularization; assay: Corneal NV regression, order of addition of therapeutic agent, Example 8; format: in vivo, C57BL/6 mice; details: APB5 from day 14-21, pegaptanib sodium from day 21-28; read day 28; FIG. 14
Method: as §1
The corneal NV model of Example 1 was used to investigate the effect of order of addition of the combination therapy using an anti-VEGF aptamer and an antibody against the PDGFB receptor. […] Corneal NV was visualized using fluorescence microscopy and quantified using Openlab software. The percent of cornea covered by vessels was calculated as a percentage of total corneal area and the results are depicted in FIG. 14.

| Compound | decrease in vessel growth (percent of cornea covered by vessels) as compared to untreated controls and Gleevec treated eyes [1] | decrease in CNV area compared to control ([2]; experiment with APB5 (5 mg/kg i.p. twice a day) and pegaptanib 25 mg/kg i.p. twice a day) | decrease in CNV area compared to control eyes [2] | effect on blood vessels of the developing retina (growth, morphology) ([3]; listed as Macugen) | decrease in vessel growth (percent of cornea covered by vessels) as compared to day 20 controls [4] | decrease in vessel growth (percent of cornea covered by vessels) as compared to control [5] | regression of corneal neovascularization, less neovascular growth as compared to control [6] | mural cell recruitment to the developing vessels of the retina ([3]; 100 μg i.p. daily from P0, eyes taken at P4) | effect on blood vessels of the developing retina (growth, morphology) [3] |
| --- | --- | --- | --- | --- | --- | --- | --- | --- | --- |
| pegaptanib sodium | 19.6% | 24% | 27% | did not interfere; also recorded: no effect | 13.81% | 8.3% | little effect | – | – |
| ARC-127: PEGylated, anti-PDGF aptamer (Archemix Corp.), sequence CAGGCUACGNCGTAGAGCAUCANTGATCCUGT (SEQ ID NO: 23) with 2′-fluoro and 2′-O-methyl modifications (CAGGCUACGNCGTAGAGCAUCANTGATCCUGT; PEG, 2'-fluoro and 2'-O-methyl modifications, chemistry not fully specified) | – | – | – | – | did not show a significant decrease | – | – | completely blocked | less vessel growth; also recorded: affects vessels outgrowth and morphology |
| Cc1ccc(NC(=O)c2ccc(CN3CCN(C)CC3)cc2)cc1Nc1nccc(-c2cccnc2)n1 [Gleevec] | – | – | 4.2% | – | – | – | – | – | – |

Reference: patent publication US8206707B2, “Combination therapy for the treatment of ocular neovascular disorders” (Ophthotech Corporation, priority 2004, dated 2012)
